Results from patent US20080262084A1, “Stable Emulsion Compositions for Intravenous Administration Having Preservatie Efficacy” (priority 2004, published 2008).

Key:
[1] = system: broad spectrum microbial growth; settings: Edetate at concentrations of 0.0025% and below; cited from earlier work
[2] = system: Swiss Albino Mice; assay: Safety study with Monolaurin, daily intravenous administration for 7 days (Example XII); settings: Monolaurin group versus EDTA group
Method: Compositions of Example IX, X and M were studied along with 5% Dextrose Injection as control.
The objective of this study was to access the safety of Monolaurin as such and in comparison with EDTA when administered into mice by an intravenous route.
Forty healthy Swiss albino mice weighing on an average 20-22 g were used in this study.
Toxicity was determined after administration of study materials.
Data was recorded as Mean +SD and median values for histopathological data.
Student's paired t-test was used to compare basal and final values of the parametric data within the same group and Student's unpaired t-test was used to compare values between two different groups. A ‘p’ value of <0.05 was considered as significant.
All experimental animals were observed daily for seven days for following parameters:
Each animal was weighed before the administration of study material and daily during the treatment period.

[3] = system: Candida albicans ATCC 10231, Pseudomonas aeruginosa ATCC 9027, Escherichia coli ATCC 8739 and Staphylococcus aureus ATCC 6538; assay: Preservative efficacy, overall result on the four standard U.S.P. organisms; assay type: cell-based; settings: Monolaurin at 0.01% w/v in the emulsion, organisms tested
Method: The said aliquots were incubated at a temperature of 20-25° C. for fungal culture and 30 to 35° C. for bacterial culture as recommended under “Antimicrobial effectiveness testing” in United States Pharmacopeia, Chapter 51 (U.S.P. <51>).
(for fungal cultures) and 32° C.±2° C. (for bacterial cultures). The viable counts of the test organisms were determined after 24 hours and 48 hours.

[4] = system: rats; settings: administered orally; cited from earlier work
[5] = cited from earlier work

SMILES | preventing a no more than 10 fold increase in broad spectrum microbial growth [1] | Histopathological data [2] | effectiveness as preservative (preventing a growth of not more than 10 fold) [3] | LD50 [4] | solubility in aqueous media ([5]; aqueous media) | solubility in fat solvents ([5]; chloroform, benzene, ethanol, or acetone)
O=C([O-])CN(CCN(CC(=O)[O-])CC(=O)O)CC(=O)O.[Na+].[Na+] [EDTA, Disodium edetate, reference compound] | ineffective | compare well | – | – | – | –
CCCCCCCCCCCC(=O)OCC(O)CO (stereo not shown) [Monolaurin] | – | compare well | effective as a preservative | about 53,000 mg/kg body weight | insoluble | highly soluble
